Consider one compound from BindingDB's records for doi:10.1021/acs.jmedchem.7b01854 (Gsk Pharmaceuticals R & D, 2018).

Molecules are shown by their SMILES. A value given as a limit tells only on which side of the number the result lay.

Assay [1] concerns the target C-C chemokine receptor type 10 (Homo sapiens) (UniProt P46092). As to the kind of experiment: Agonist activity at CCR10 (unknown origin).
Assay [2] shares this target. Description: Agonist activity at CCR10 (unknown origin). This is another data set of the same source.

Sequence of C-C chemokine receptor type 10 (Homo sapiens) (P46092 whole entry, looked up): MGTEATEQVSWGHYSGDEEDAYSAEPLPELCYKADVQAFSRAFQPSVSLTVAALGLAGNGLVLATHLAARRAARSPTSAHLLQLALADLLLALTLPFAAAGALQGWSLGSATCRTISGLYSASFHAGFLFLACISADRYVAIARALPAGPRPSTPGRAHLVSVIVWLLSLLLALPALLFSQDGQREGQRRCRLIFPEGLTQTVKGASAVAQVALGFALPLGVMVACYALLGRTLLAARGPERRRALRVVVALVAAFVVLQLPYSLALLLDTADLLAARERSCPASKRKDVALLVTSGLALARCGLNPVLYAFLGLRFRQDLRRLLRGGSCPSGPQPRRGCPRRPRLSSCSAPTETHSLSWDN

The term EC50 denotes the concentration at which the effect is half-maximal. The low end stands for greater potency, the high end for weaker potency. Usually IC50 stands for the point on the concentration scale where inhibition reaches its midpoint. Low readings indicate greater potency in that assay, high ones weaker potency in that assay. For `CC1=CCC[C@H]1NC(=O)Nc1ccc(Cl)c(S(=O)(=O)[C@@]2(C)CCOC2)c1O`, the EC50 in assay [1] is > 10 µM. Moreover, the IC50 in assay [2] is > 10 µM.
